In brackets after ≈: the same amount, converted by molar mass.
Legend:
Escherichia coli [1] = test: microbe, parasite or virus in culture
Description: Antimicrobial activity against Escherichia coli expressing beta-lactamase Oxa-51 by CLSI broth microdilution method

Escherichia coli [2] = test: microbe, parasite or virus in culture; remark: listed apart in the source
Description: Antimicrobial activity against Escherichia coli expressing beta-lactamase CMY-2 by CLSI broth microdilution method

Escherichia coli [3] = test: microbe, parasite or virus in culture; remark: listed apart in the source
Description: Antimicrobial activity against Escherichia coli expressing beta-lactamase Oxa-146 by CLSI broth microdilution method

Escherichia coli [4] = test: microbe, parasite or virus in culture; remark: listed apart in the source
Description: Antimicrobial activity against Escherichia coli expressing beta-lactamase MIR-1 by CLSI broth microdilution method

Escherichia coli [5] = test: microbe, parasite or virus in culture; remark: listed apart in the source
Description: Antimicrobial activity against Escherichia coli expressing beta-lactamase IMI-1 by CLSI broth microdilution method

Escherichia coli [6] = test: microbe, parasite or virus in culture; remark: listed apart in the source
Description: Antimicrobial activity against Escherichia coli expressing beta-lactamase PER-1 by CLSI broth microdilution method

Pseudomonas aeruginosa [7] = test: Antimicrobial activity against Pseudomonas aeruginosa expressing delta-mexB/mexXY/delta-ampDh2/ delta-ampD by CLSI broth microdilution method; format: functional
Escherichia coli [8] = test: microbe, parasite or virus in culture; remark: listed apart in the source
Description: Antimicrobial activity against Escherichia coli expressing beta-lactamase P99 by CLSI broth microdilution method

Escherichia coli [9] = test: microbe, parasite or virus in culture; remark: listed apart in the source
Description: Antimicrobial activity against Escherichia coli expressing beta-lactamase PER-2 by CLSI broth microdilution method

Escherichia coli [10] = test: microbe, parasite or virus in culture; remark: listed apart in the source
Description: Antimicrobial activity against Escherichia coli expressing beta-lactamase TEM-47 by CLSI broth microdilution method

Escherichia coli [11] = test: microbe, parasite or virus in culture; remark: listed apart in the source
Description: Antimicrobial activity against wild type Escherichia coli by CLSI broth microdilution method

Escherichia coli [12] = test: microbe, parasite or virus in culture; remark: listed apart in the source
Description: Antimicrobial activity against Escherichia coli expressing beta-lactamase NMC-A by CLSI broth microdilution method

Enterobacteriaceae = test: Antimicrobial activity against ESBL, KPC and MBL producing Enterobacteriaceae by CLSI broth microdilution method; format: functional
Escherichia coli [13] = test: microbe, parasite or virus in culture; remark: listed apart in the source
Description: Antimicrobial activity against Escherichia coli expressing beta-lactamase Oxa-40 by CLSI broth microdilution method

Pseudomonas aeruginosa [14] = test: Antimicrobial activity against Pseudomonas aeruginosa ATCC 27853 by CLSI broth microdilution method; format: functional
Escherichia coli [15] = test: microbe, parasite or virus in culture; remark: listed apart in the source
Description: Antimicrobial activity against Escherichia coli expressing beta-lactamase TEM-10 by CLSI broth microdilution method

Escherichia coli [16] = test: microbe, parasite or virus in culture; remark: listed apart in the source
Description: Antimicrobial activity against Escherichia coli expressing beta-lactamase KPC-8 by CLSI broth microdilution method

Escherichia coli [17] = test: microbe, parasite or virus in culture; remark: listed apart in the source
Description: Antimicrobial activity against Escherichia coli expressing beta-lactamase TEM-16 by CLSI broth microdilution method

[18] = Chemical stability in pH 7.4 potassium phosphate buffer assessed as half life for compound hydrolysis at 37 degC by UPLC and mass spectrometry; format: physicochemical
Escherichia coli [19] = test: microbe, parasite or virus in culture; remark: listed apart in the source
Description: Antimicrobial activity against Escherichia coli expressing beta-lactamase CTXM-3 by CLSI broth microdilution method

Escherichia coli [20] = test: microbe, parasite or virus in culture; remark: listed apart in the source
Description: Antimicrobial activity against Escherichia coli expressing beta-lactamase VEB-7 by CLSI broth microdilution method

Escherichia coli [21] = test: microbe, parasite or virus in culture; remark: listed apart in the source
Description: Antimicrobial activity against Escherichia coli expressing beta-lactamase TEM-121 by CLSI broth microdilution method

Escherichia coli [22] = test: Antimicrobial activity against Escherichia coli expressing beta-lactamase KPC-2 by CLSI broth microdilution method; format: functional
Escherichia coli [23] = test: microbe, parasite or virus in culture; remark: listed apart in the source
Description: Antimicrobial activity against Escherichia coli expressing beta-lactamase Oxa-160 by CLSI broth microdilution method

Escherichia coli [24] = test: microbe, parasite or virus in culture; remark: listed apart in the source
Description: Antimicrobial activity against Escherichia coli expressing beta-lactamase TEM-24 by CLSI broth microdilution method

[25] = biological target: T1, GABA A receptor alpha-2/beta-2/gamma-2 (Homo sapiens, UniProt P18507+P47869+P47870); test: Inhibition of recombinant human GABA A alpha2beta2gamma2 receptor expressed in CHO-K1 cells incubated at room temperature for 15 mins before the GABA addition fluorescence spectrometry; format: cell-based
T1 sequence (P47870 whole entry): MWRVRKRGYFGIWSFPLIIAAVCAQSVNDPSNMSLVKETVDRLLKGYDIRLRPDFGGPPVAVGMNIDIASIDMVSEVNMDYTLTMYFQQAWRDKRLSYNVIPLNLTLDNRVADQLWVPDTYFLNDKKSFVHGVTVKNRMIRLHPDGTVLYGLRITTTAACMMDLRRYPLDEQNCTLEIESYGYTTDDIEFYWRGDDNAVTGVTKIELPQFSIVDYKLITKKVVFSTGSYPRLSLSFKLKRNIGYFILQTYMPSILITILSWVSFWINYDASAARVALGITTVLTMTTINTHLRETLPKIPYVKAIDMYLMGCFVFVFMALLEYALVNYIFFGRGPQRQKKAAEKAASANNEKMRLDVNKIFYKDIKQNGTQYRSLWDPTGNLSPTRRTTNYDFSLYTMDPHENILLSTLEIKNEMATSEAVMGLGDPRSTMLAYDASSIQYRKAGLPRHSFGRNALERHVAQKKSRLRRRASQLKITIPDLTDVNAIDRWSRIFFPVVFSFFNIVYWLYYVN
T1 sequence (P18507 whole entry): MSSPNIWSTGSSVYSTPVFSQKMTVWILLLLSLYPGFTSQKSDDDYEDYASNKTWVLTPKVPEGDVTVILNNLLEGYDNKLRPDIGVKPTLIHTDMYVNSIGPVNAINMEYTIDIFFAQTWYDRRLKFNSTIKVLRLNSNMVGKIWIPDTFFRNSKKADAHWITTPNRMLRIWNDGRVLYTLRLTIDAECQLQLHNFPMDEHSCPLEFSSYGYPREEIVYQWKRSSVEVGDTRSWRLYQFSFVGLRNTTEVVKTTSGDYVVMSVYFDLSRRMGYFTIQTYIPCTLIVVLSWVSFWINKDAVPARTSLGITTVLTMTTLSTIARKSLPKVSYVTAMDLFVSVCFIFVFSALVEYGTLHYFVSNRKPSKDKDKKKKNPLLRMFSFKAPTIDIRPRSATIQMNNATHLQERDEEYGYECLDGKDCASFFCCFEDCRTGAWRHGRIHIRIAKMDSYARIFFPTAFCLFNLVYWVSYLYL
T1 sequence (P47869 whole entry): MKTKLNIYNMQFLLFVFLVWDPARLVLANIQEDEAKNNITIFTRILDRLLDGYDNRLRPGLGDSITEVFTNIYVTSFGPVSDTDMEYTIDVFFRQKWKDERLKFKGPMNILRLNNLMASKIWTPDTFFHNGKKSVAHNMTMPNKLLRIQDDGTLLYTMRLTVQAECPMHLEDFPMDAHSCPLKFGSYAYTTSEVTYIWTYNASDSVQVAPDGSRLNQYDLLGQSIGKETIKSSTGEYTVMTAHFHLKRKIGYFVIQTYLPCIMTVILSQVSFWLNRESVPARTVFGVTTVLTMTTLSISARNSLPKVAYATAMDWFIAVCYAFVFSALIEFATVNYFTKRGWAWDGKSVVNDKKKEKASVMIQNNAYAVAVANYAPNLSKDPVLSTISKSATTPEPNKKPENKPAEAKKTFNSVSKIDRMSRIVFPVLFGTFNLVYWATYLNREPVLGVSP

Escherichia coli [26] = test: microbe, parasite or virus in culture; remark: listed apart in the source
Description: Antimicrobial activity against Escherichia coli expressing beta-lactamase DHA by CLSI broth microdilution method

Escherichia coli [27] = test: microbe, parasite or virus in culture; remark: listed apart in the source
Description: Antimicrobial activity against Escherichia coli expressing beta-lactamase VEB-4 by CLSI broth microdilution method

Escherichia coli [28] = test: microbe, parasite or virus in culture; remark: listed apart in the source
Description: Antimicrobial activity against Escherichia coli expressing beta-lactamase Oxa-225 by CLSI broth microdilution method

Escherichia coli [29] = test: microbe, parasite or virus in culture; remark: listed apart in the source
Description: Antimicrobial activity against Escherichia coli expressing beta-lactamase IMP-1 by CLSI broth microdilution method

Escherichia coli [30] = test: microbe, parasite or virus in culture; remark: listed apart in the source
Description: Antimicrobial activity against Escherichia coli expressing beta-lactamase Oxa-48 by CLSI broth microdilution method

Row | SMILES | MIC (Escherichia coli [1]) | MIC (Escherichia coli [2]) | MIC (Escherichia coli [3]) | MIC (Escherichia coli [4]) | MIC (Escherichia coli [5]) | MIC (Escherichia coli [6]) | MIC (Escherichia coli [8]) | MIC (Escherichia coli [9]) | MIC (Escherichia coli [10]) | MIC (Escherichia coli [11]) | MIC (Escherichia coli [12]) | MIC90 (Enterobacteriaceae) | MIC (Escherichia coli [13]) | MIC (Escherichia coli [15]) | MIC (Escherichia coli [16]) | MIC (Escherichia coli [17]) | half-life [18] | MIC (Escherichia coli [19]) | MIC (Escherichia coli [20]) | MIC (Escherichia coli [21]) | also measured
1 | N=C(N)NCc1cnn(C[C@@H]2[C@H](NC(=O)/C(=N\OC3(C(=O)O)CC3)c3csc(N)n3)C(=O)N2S(=O)(=O)O)n1 (stereo in doubt) | 0.125 µg/mL (≈ 0.219 µM) | 0.5 µg/mL (≈ 0.875 µM) | 4 µg/mL (≈ 7 µM) | 0.5 µg/mL (≈ 0.875 µM) | 0.06 µg/mL (≈ 0.105 µM) | 64 µg/mL (≈ 112 µM) | 0.25 µg/mL (≈ 0.437 µM) | > 64 µg/mL | 0.125 µg/mL (≈ 0.219 µM) | 0.06 µg/mL (≈ 0.105 µM) | 0.125 µg/mL (≈ 0.219 µM) | 4 µg/mL (≈ 7 µM) | 0.125 µg/mL (≈ 0.219 µM) | 1 µg/mL (≈ 1.75 µM) | 1 µg/mL (≈ 1.75 µM) | 0.5 µg/mL (≈ 0.875 µM) | 20.2 days | 0.25 µg/mL (≈ 0.437 µM) | 32 µg/mL (≈ 56 µM) | 0.5 µg/mL (≈ 0.875 µM) | MIC (Pseudomonas aeruginosa [7]): 32 µg/mL (≈ 56 µM); MIC (Pseudomonas aeruginosa [14]): 2 µg/mL (≈ 3.5 µM); MIC (Escherichia coli [22]): 0.125 µg/mL (≈ 0.219 µM); MIC (Escherichia coli [23]): 0.125 µg/mL (≈ 0.219 µM); MIC (Escherichia coli [24]): 0.25 µg/mL (≈ 0.437 µM); IC50 [25]: 190 µM; MIC (Escherichia coli [26]): 8 µg/mL (≈ 14 µM); MIC (Escherichia coli [27]): 16 µg/mL (≈ 28 µM); MIC (Escherichia coli [28]): 0.25 µg/mL (≈ 0.437 µM); MIC (Escherichia coli [29]): 0.125 µg/mL (≈ 0.219 µM); MIC (Escherichia coli [30]): 0.06 µg/mL (≈ 0.105 µM)
2 | NC[C@@H]1CN(C[C@@H]2[C@H](NC(=O)/C(=N\OC3(C(=O)O)CC3)c3csc(N)n3)C(=O)N2S(=O)(=O)O)C(=O)O1 (stereo in doubt) | ≤ 0.06 µg/mL | 0.125 µg/mL (≈ 0.228 µM) | 2 µg/mL (≈ 3.65 µM) | ≤ 0.06 µg/mL | 0.125 µg/mL (≈ 0.228 µM) | > 64 µg/mL | 0.125 µg/mL (≈ 0.228 µM) | > 32 µg/mL | ≤ 0.06 µg/mL | 0.125 µg/mL (≈ 0.228 µM) | 0.125 µg/mL (≈ 0.228 µM) | 1 µg/mL (≈ 1.83 µM) | 0.125 µg/mL (≈ 0.228 µM) | 1 µg/mL (≈ 1.83 µM) | 1 µg/mL (≈ 1.83 µM) | 0.125 µg/mL (≈ 0.228 µM) | 6.54 days | ≤ 0.06 µg/mL | 32 µg/mL (≈ 58.4 µM) | ≤ 0.06 µg/mL | MIC (Pseudomonas aeruginosa [7]): > 32 µg/mL; MIC (Pseudomonas aeruginosa [14]): 32 µg/mL (≈ 58.4 µM); MIC (Escherichia coli [22]): 0.125 µg/mL (≈ 0.228 µM); MIC (Escherichia coli [23]): 0.25 µg/mL (≈ 0.457 µM); MIC (Escherichia coli [24]): 0.125 µg/mL (≈ 0.228 µM); IC50 [25]: 1340 µM; MIC (Escherichia coli [26]): 0.25 µg/mL (≈ 0.457 µM); MIC (Escherichia coli [27]): 32 µg/mL (≈ 58.4 µM); MIC (Escherichia coli [28]): 0.5 µg/mL (≈ 0.913 µM); MIC (Escherichia coli [29]): 0.06 µg/mL (≈ 0.11 µM); MIC (Escherichia coli [30]): 0.06 µg/mL (≈ 0.11 µM)
3 | N=C(N)NCc1cn(C[C@@H]2[C@H](NC(=O)/C(=N\OC3(C(=O)O)CC3)c3csc(N)n3)C(=O)N2S(=O)(=O)O)nn1 (stereo in doubt) | 0.25 µg/mL (≈ 0.437 µM) | 0.25 µg/mL (≈ 0.437 µM) | 1 µg/mL (≈ 1.75 µM) | 0.5 µg/mL (≈ 0.875 µM) | 0.06 µg/mL (≈ 0.105 µM) | 32 µg/mL (≈ 56 µM) | 0.25 µg/mL (≈ 0.437 µM) | > 64 µg/mL | 0.25 µg/mL (≈ 0.437 µM) | 0.125 µg/mL (≈ 0.219 µM) | 0.125 µg/mL (≈ 0.219 µM) | 2 µg/mL (≈ 3.5 µM) | 0.125 µg/mL (≈ 0.219 µM) | 0.5 µg/mL (≈ 0.875 µM) | 1 µg/mL (≈ 1.75 µM) | 0.25 µg/mL (≈ 0.437 µM) | 3.71 days | 0.25 µg/mL (≈ 0.437 µM) | 32 µg/mL (≈ 56 µM) | 1 µg/mL (≈ 1.75 µM) | MIC (Escherichia coli [22]): 0.125 µg/mL (≈ 0.219 µM); MIC (Escherichia coli [23]): 0.25 µg/mL (≈ 0.437 µM); MIC (Escherichia coli [24]): 0.25 µg/mL (≈ 0.437 µM); IC50 [25]: 890 µM; MIC (Escherichia coli [26]): 4 µg/mL (≈ 7 µM); MIC (Escherichia coli [27]): 8 µg/mL (≈ 14 µM); MIC (Escherichia coli [28]): 0.25 µg/mL (≈ 0.437 µM); MIC (Escherichia coli [29]): 0.125 µg/mL (≈ 0.219 µM); MIC (Escherichia coli [30]): 0.125 µg/mL (≈ 0.219 µM)
4 | Nc1nc(/C(=N/OC2(C(=O)O)CC2)C(=O)N[C@@H]2C(=O)N(S(=O)(=O)O)[C@@H]2CN2CCOC2=O)cs1 (stereo in doubt) [ANCREMONAM] | 0.125 µg/mL (≈ 0.241 µM) | 0.25 µg/mL (≈ 0.482 µM) | 2 µg/mL (≈ 3.86 µM) | 0.125 µg/mL (≈ 0.241 µM) | 0.125 µg/mL (≈ 0.241 µM) | 64 µg/mL (≈ 123 µM) | 0.25 µg/mL (≈ 0.482 µM) | 128 µg/mL (≈ 247 µM) | 0.125 µg/mL (≈ 0.241 µM) | 0.125 µg/mL (≈ 0.241 µM) | 0.125 µg/mL (≈ 0.241 µM) | 2 µg/mL (≈ 3.86 µM) | 0.125 µg/mL (≈ 0.241 µM) | 1 µg/mL (≈ 1.93 µM) | 0.125 µg/mL (≈ 0.241 µM) | 0.25 µg/mL (≈ 0.482 µM) | 16.7 days | 0.125 µg/mL (≈ 0.241 µM) | 16 µg/mL (≈ 30.9 µM) | 0.25 µg/mL (≈ 0.482 µM) | MIC (Pseudomonas aeruginosa [7]): 64 µg/mL (≈ 123 µM); MIC (Pseudomonas aeruginosa [14]): 32 µg/mL (≈ 61.7 µM); MIC (Escherichia coli [22]): 0.125 µg/mL (≈ 0.241 µM); MIC (Escherichia coli [23]): 1 µg/mL (≈ 1.93 µM); MIC (Escherichia coli [24]): 0.5 µg/mL (≈ 0.964 µM); IC50 [25]: > 2400 µM; MIC (Escherichia coli [26]): 0.5 µg/mL (≈ 0.964 µM); MIC (Escherichia coli [27]): 8 µg/mL (≈ 15.4 µM); MIC (Escherichia coli [28]): 1 µg/mL (≈ 1.93 µM); MIC (Escherichia coli [29]): 0.125 µg/mL (≈ 0.241 µM); MIC (Escherichia coli [30]): 0.125 µg/mL (≈ 0.241 µM)

Source: ChEMBL document CHEMBL4184210, “Optimization of novel monobactams with activity against carbapenem-resistant Enterobacteriaceae - Identification of LYS228” (Bioorg Med Chem Lett, 2018)
